Patent US6120997A, “Nucleic acid binders having an hydroxyamine motif” (The Scripps Research Institute, priority 1998, dated 2000)
Read-outs that look alike come from different tables or passages of the source.

Assays:
RBE3 = assay: SPR binding of aminoglycosides to RBE3; design: species or system HIV-1; conditions: 25 C; for Kd: pH 7.0, 10 mM HEPES, 150 mM NaCl, 0.1 mM EDTA, Scatchard slope; for Scatchard plot x-axis intercept (RBE3): pH 7.0, 150 mM NaCl
Protocol: (§1) FIGS. 9A and 9B illustrate neomycin B binding to RBE3, RBE3-neg and wt-RRE-II. (A) Semilogarithmic plot. […] Conditions: pH 7.0, 10 mM HEPES, 150 mM NaCl, 0.1 mM EDTA, […].
(§2) FIGS. 10A and 10B illustrate paromomycin binding to RBE3, RBE3-neg and wt-RRE-II. (A) Semilogarithmic plot; the dashed line indicates the binding of neomycin B to wt-RRE-II for comparison (B) Scatchard plot. […] Conditions: pH 7.0, 10 mM HEPES, 150 mM NaCl, 0.1 mM EDTA, […].
(§3) Binding of the aminoglycoside to all three RNA oligonucleotides is observed starting in the low nanomolar concentration range and is non-saturable over the concentration range investigated. […] The high degree of non-specific binding is not surprising considering that aminoglycosides are highly charged polycations that tend to associate nonspecifically with the polyanionic phosphate backbone of RNA. […] Data points corresponding to 0.5 or more equivalents of neomycin B represent equilibrium values and can be analyzed with respect to stoichiometry and affinity of aminoglycoside binding. […] Both sequences bind one molecule of neomycin B with submicromolar affinity followed by weaker association with several additional equivalents of the antibiotic.
(§4) Samples were prepared by serial dilutions from stock solutions in RNase free microfuge tubes (Ambion) and were centrifuged at 14000 rpm for degassing. Buffers were filtered through sterile 0.2 &m nylon membranes (Nalgene) under vacuum, except for BIA certified HBS buffer (Pharmacia Biosensor AB) which was used as obtained. All procedures for binding studies were automated as methods using repetitive cycles of sample injection and regeneration. Typically, buffer was injected in the first two cycles to establish a stable baseline value. Samples were injected at a flowrate of 5-10 &L/min using either the KINJECT or the COINJECT command. All aminoglycoside and Rev27 samples were injected from autoclaved 7 mm plastic vials that were capped with pierceable plastic crimp caps. To minimize carry over, samples were injected in order of increasing concentration. The running buffer was identical to the injection buffer, except for the salt dependence study where a single running buffer was used for all injections. Expected values for the equilibrium response of one equivalent of analyte were calculated from the relative molecular weight of the analyte and the immobilized RNA ligand in each flowcells. These values were adjusted by multiplying with a factor of 0.8 or 0.57 for Rev27 or aminoglycosides respectively. These factors arise from the different molar refractive indices of RNA and the analyte and were determined from the Scatchard plot x-axis intercepts of the 1:1 binding isotherms for Rev27 and neomycin B.
(§5) Binding Studies with Aminoglycosides. […]

RBE3-neg = assay: SPR binding of aminoglycosides to RBE3-neg; conditions: 25 C; for Kd: pH 7.0, 10 mM HEPES, 150 mM NaCl, 0.1 mM EDTA, Scatchard slope; for Scatchard plot x-axis intercept (RBE3-neg): pH 7.0, 150 mM NaCl
Protocol: as §1, §2, §3, §4, §5

Neo16-bd = assay: SPR binding of aminoglycosides to Neo16-bd aptamer
Protocol: Conditions: 10 mM HEPES (pH 7.4), 0.1 mM EDTA and NaCl as indicated.
The binding of aminoglycosides to RNA is likely to involve substantial ionic contributions and therefore should be strongly influenced by competing buffer ions. […] We studied the salt dependence of neomycin B binding to RBE3, RBE3-neg and Neo16-bd (FIG. 14) by varying the concentration of NaCl included in the injection buffer (10 mM HEPES, pH 7.4, 0.1 mM EDTA). […] This neomycin binding motif was obtained by in vitro selection under conditions of high ionic strength.
To further improve our understanding of specific aminoglycoside recognition, we have also included an artificial aminoglycoside receptor that was evolved in vitro to recognize an aminoglycoside. A number of RNA aptamers for small molecules have been reported in recent years. Among them are aptamers that recognize the aminoglycosides tobramycin, lividomycin and kanamycin.
For comparison, the corresponding values for AS-wt are also included.
(§6) General Procedures for SPR Binding Studies done in Example 5. Samples were prepared by serial dilutions from stock solutions in RNase free microfuge tubes (Ambion) and were centrifuged at 14000 rpm for degassing. Unless otherwise noted, all binding studies were carried out using HBS buffer (Pharmacia Biosensor AB) which was used as obtained. All procedures for binding studies were automated as methods using repetitive cycles of sample injection and regeneration. Typically, buffer was injected in the first two cycles to establish a stable baseline value. Samples were injected at a flowrate of […] using either the KINJECT command. All aminoglycoside samples were injected from autoclaved 7 mm plastic vials that were capped with pierceable plastic crimp caps. To minimize carry over, samples were injected in order of increasing concentration. The running buffer was identical to the injection buffer.

[1] = test system: wt-RRE-II, RBE3 and RBE3-neg; assay: SPR binding of aminoglycosides to RRE related RNAs; design: species or system HIV-1
Protocol: Samples were prepared by serial dilutions from stock solutions in RNase free microfuge tubes (Ambion) and were centrifuged at 14000 rpm for degassing. […] All procedures for binding studies were automated as methods using repetitive cycles of sample injection and regeneration. Typically, buffer was injected in the first two cycles to establish a stable baseline value. […] To minimize carry over, samples were injected in order of increasing concentration.
as §6

| SMILES | Kd (RBE3; read-out: Kd (RBE3), neomycin B) [nM] | Scatchard plot x-axis intercept (RBE3) (RBE3) | Kd (RBE3-neg; read-out: Kd (RBE3-neg), neomycin B) [nM] | Scatchard plot x-axis intercept (RBE3-neg) (RBE3-neg) | selectivity for binding Neo16-bd vs. RBE3 or RBE3-neg (Neo16-bd; 250 mM NaCl, 10 mM HEPES, pH 7.4, 0.1 mM EDTA) | specificity of Neo16bd relative to RBE3 (Neo16-bd; HBS buffer + 150 mM NH4Cl) | Kd (Neo16-bd; HBS buffer + 150 mM NH4Cl, read-out: Kd, Neo16bd, high salt) [nM] | discrimination between the three RRE related sequences (in words) [1] | weaker binding to the three RRE related RNAs than to AS-wt [1] [fold] | Kd (RBE3; read-out: Kd (RBE3), paromomycin) [nM] | Kd (RBE3-neg; read-out: Kd (RBE3-neg), paromomycin) [nM] | discrimination between paromomycin and neomycin derivatives of the same charge, Neo16bd (Neo16-bd) | lower affinity compared to neomycin B ([1]; wt-RRE-II, RBE3 and RBE3-neg, equilibrium binding) |
| --- | --- | --- | --- | --- | --- | --- | --- | --- | --- | --- | --- | --- | --- |
| NC[C@@H]1O[C@H](O[C@H]2[C@@H](O)[C@H](O[C@@H]3[C@@H](O)[C@H](N)C[C@H](N)[C@H]3O[C@H]3O[C@H](CN)[C@@H](O)[C@H](O)[C@H]3N)O[C@@H]2CO)[C@H](N)[C@@H](O)[C@@H]1O [Neomycin B] | 210 | 1.01 | 160 | 0.98 | approximately 100 fold | greater than 300 fold | < 10 | no discrimination | 12 | – | – | – | – |
| NC[C@@H]1O[C@H](O[C@H]2[C@@H](O)[C@H](O[C@@H]3[C@@H](O)[C@H](N)C[C@H](N)[C@H]3O[C@H]3O[C@H](CO)[C@@H](O)[C@H](O)[C@H]3N)O[C@@H]2CO)[C@H](N)[C@@H](O)[C@@H]1O [Paromomycin] | – | 1.04 | – | 1.05 | – | – | – | – | – | 2800 | 3100 | greater than 20 fold | approximately 15 fold |
